Source: US5068247A, “2-aminopentanoic acid compounds and their use as immunosuppressants” (priority 1989, dated 1991)
In brackets after ≈: the same amount, converted by molar mass. Where two headings read alike, the source gives them in different places.

Tests used:
Assay type in all cases: cell-based
[1] = tested on: mouse allogenic MLR (BALB/c mouse spleen cells stimulated with C57BL/6 mouse spleen cells); test: mouse allogenic mixed lymphocyte reaction (MLR), 3H-thymidine uptake; conditions: for inhibition at 0.0001 µg/mL / inhibition at 0.001 µg/mL / inhibition at 0.01 µg/mL / inhibition at 0.1 µg/mL / inhibition at 1 µg/mL / IC50: Mus musculus, Lymphocyte; for inhibition at 0.0001 µg/mL / inhibition at 0.001 µg/mL / inhibition at 0.01 µg/mL / inhibition at 0.1 µg/mL / inhibition at 1 µg/mL: read-out: Suppression; for IC50: read-out: 50%-inhibition concentration (IC50) in mouse allogenic MLR
Protocol: The immunosuppressive activity of the compounds was assayed on the basis of mouse allogenic mixed lymphocyte reaction (hereinafter sometimes abbreviated as MLR). Mouse allogenic MRL was carried out using a mixed culture of BALB/c mouse (H-2^d) spleen cells as the responder cells and mitomycin C-treated C57BL/6 ([…]) mouse spleen cells as the stimulator cells in equal amounts.
The responder cells were prepared as follows:
The spleen was resected from 5- to 6-week-old BALB/c mice, and single cell suspension of spleen cells was prepared by using the RPMI1640 culture medium (containing 60 μg/ml of kanamycin sulfate, 2 mM of L-glutamine, 10 mM of N-2-hydroxyethylpiperazine-N'-2-ethanesulphonate (HEPES) and 0.1% sodium hydrogencarbonate) to which heat-inactivated fetal calf serum (hereinafter sometimes abbreviated as FCS) had been added to 5%. After hemolytic treatment, the cell suspension was adjusted to a concentration of 10^7 cells/ml with the RPMI1640 culture medium supplemented with 10^-4 M 2-mercapto-ethanol and 20% FCS, and was used as the responder cell suspension.
The stimulator cells were prepared as follows: The spleen was resected from 5- to 6-week-old male C57BL/6 mice, and a single cell suspension of spleen cells was prepared by using the RPMI1640 culture medium. After hemolytic treatment, the cells were treated with 40 μg/ml of mitomycin C at 37° C. for 60 minutes. After washing three times, the cell suspension was adjusted to a concentration of 10^7 cells/ml with the RPMI1640 culture medium supplemented with 10^-4 M 2-mercapto-ethanol and 20% FCS, and was used as the stimulator cell suspension.
The blastogenesis of lymphocytes was assayed using ^3 H-thymidine uptake as an index. That is, after termination of culture, 18.5 KBq/well of ^3 H-thymidine was added thereto and the suspension was cultured for 4 hours. Cells were harvested by a cell-harvester, and the radioactivity incorporated into the cells was determined by a liquid scintillation counter, which was used as an index of blastogenesis of lymphocytes in the mouse allogenic MLR. The suppression of the mouse allogenic MLR was evaluated by calculating the percent suppression by the following formula.
The test substance dissolved in methanol was diluted with the RPMI1640 culture medium and put to use.

[2] = tested on: IL-2 production in PHA-stimulated mouse spleen cells; test: suppression of IL-2 production in PHA-stimulated mouse spleen cells; conditions: for inhibition at 0.001 µg/mL / inhibition at 0.01 µg/mL / inhibition at 0.1 µg/mL / inhibition at 1 µg/mL: Mus musculus, 24 h, read-out: Suppression
Protocol: (§1) The suppression of IL-2 and IL-3 production in the mitogen-stimulated mouse spleen cells was examined as follows:
(§2) The spleen was resected from 5- to 8-week-old male C3H/HeN mice, and a single cell suspension of spleen cells was prepared by using the RPMI1640 culture medium. After hemolytic treatment, the concentration of the suspension was adjusted to 10^7 cells/ml by using the RPMI1640 culture medium supplemented with 20% FCS, to which 10 μg/ml of phytohemagglutinin (PHA) was added as mitogen. […] After termination of culture, the supernatant was collected and used as the culture supernatant of PHA-stimulated mouse spleen cells.
The IL-2 activity in the culture supernatant of PHA-stimulated mouse spleen cells was assayed as follows:
IL-2 dependent mouse cell line CTLL-2 cells were suspended in the RPMI1640 culture medium supplemented with 30% FCS to the concentration of 2×10^5 cells/ml. One hundred μl of the cell suspension and 100 μl of the two-fold serial dilution of the culture supernatant of PHA-stimulated mouse spleen cells were added to a 96-well flat-bottomed microtest plate. […] The IL-2 activity is expressed in U/ml as the dilution at which the absorbancy measured by MTT method was 50% of the maximum.

[3] = tested on: IL-3 production in PHA-stimulated mouse spleen cells; test: suppression of IL-3 production in PHA-stimulated mouse spleen cells; conditions: for inhibition at 0.001 µg/mL / inhibition at 0.01 µg/mL / inhibition at 0.1 µg/mL / inhibition at 1 µg/mL: Mus musculus, 24 h, read-out: Suppression
Protocol: as §1, §2
The IL-3 activity was assayed as follows:
IL-3-dependent mouse cell line FDC-P2 cells were suspended in the RPMI1640 culture medium supplemented with 10% FCS to the concentration of 2×10^5 cells/ml. One hundred μl of the cell suspension and 100 μl of the two-fold serial dilution of the culture supernatant of PHA-stimulated mouse spleen cells described above were added to a 96-well flat-bottomed microtest plate. […] The IL-3 activity is expressed in U/ml as the dilution at which the absorbancy measured by MTT method was 50% of the maximum.

CTLL-2 cells = test: suppression of proliferation of IL-2-dependent mouse cell line CTLL-2 induced by IL-2; conditions: IL-2 50 U/ml
Protocol: IL-2-dependent mouse cell line CTLL-2 cells were suspended in the RPMI1640 culture medium supplemented with 30% FCS to the concentration of 4×10^5 cells/ml. Fifty μl of the cell suspension, 50 μl of 200 U/ml recombinant human IL-2 (rhIL-2) and 100 μl of the test substance were added to a 96-well flat-bottomed microtest plate. […] The percent suppression (%) was calculated by the following formula. [formula]

Work on `CCCCCCC1(CCCCCC/C=C/C[C@@H](O)[C@H](O)[C@@](N)(CO)C(=O)O)SCCS1` [Example 3] yielded a 3H-thymidine uptake ([1]; 0.0001 μg/ml, Table 1A) of 17247 cpm, a 3H-thymidine uptake ([1]; 0.001 μg/ml, Table 1A) of 16263 cpm and a 3H-thymidine uptake ([1]; 0.01 μg/ml, Table 1A) of 13978 cpm. The 3H-thymidine uptake ([1]; 0.1 μg/ml, Table 1A) was 14747 cpm, the 3H-thymidine uptake ([1]; 1 μg/ml, Table 1A) was 631 cpm and the inhibition at 0.0001 µg/mL ([1]; 0.0001 μg/ml, Table 1A) was 7.1%. The inhibition at 0.001 µg/mL ([1]; 0.001 μg/ml, Table 1A) was 12.9%, the inhibition at 0.01 µg/mL ([1]; 0.01 μg/ml, Table 1A) was 26.5% and the inhibition at 0.1 µg/mL ([1]; 0.1 μg/ml, Table 1A) was 21.9%. It also gave an inhibition at 1 µg/mL ([1]; 1 μg/ml, Table 1A) of 96.2%, an IC50 [1] of 0.25 µg/mL (≈ 0.523 µM) and an IL-2 activity ([2]; 0.001 μg/ml) of 14.9 U/ml. The IL-2 activity ([2]; 0.01 μg/ml) was 13.9 U/ml, the IL-2 activity ([2]; 0.1 μg/ml) was 12.6 U/ml and the IL-2 activity ([2]; 1 μg/ml) was 8.6 U/ml. For the same compound, the inhibition at 0.001 µg/mL ([2]; 0.001 μg/ml) was 0%, the inhibition at 0.01 µg/mL ([2]; 0.01 μg/ml) was 0% and the inhibition at 0.1 µg/mL ([2]; 0.1 μg/ml) was 0%. The inhibition at 1 µg/mL ([2]; 1 μg/ml) was 28.9%, the IL-3 activity ([3]; 0.001 μg/ml) was 42.2 U/ml and the IL-3 activity ([3]; 0.01 μg/ml) was 45.3 U/ml. The IL-3 activity ([3]; 0.1 μg/ml) was 42.2 U/ml, the IL-3 activity ([3]; 1 μg/ml) was 27.9 U/ml and the inhibition at 0.001 µg/mL ([3]; 0.001 μg/ml) was 0%. The inhibition at 0.01 µg/mL ([3]; 0.01 μg/ml) was 0%, the inhibition at 0.1 µg/mL ([3]; 0.1 μg/ml) was 0% and the inhibition at 1 µg/mL ([3]; 1 μg/ml) was 24.2%. For the same compound, the “optical density (OD570)” value (CTLL-2 cells; 0.001 μg/ml, Table 6A) was 0.551, the “optical density (OD570)” value (CTLL-2 cells; 0.01 μg/ml, Table 6A) was 0.449 and the “optical density (OD570)” value (CTLL-2 cells; 0.1 μg/ml, Table 6A) was 0.471. For the same compound, the “optical density (OD570)” value (CTLL-2 cells; 1 μg/ml, Table 6A) was 0.152, the inhibition at 0.001 µg/mL (CTLL-2 cells; Mus musculus, CTLL-2, 68 h, 0.001 μg/ml, Table 6A, read-out: Suppression) was 6% and the inhibition at 0.01 µg/mL (CTLL-2 cells; Mus musculus, CTLL-2, 68 h, 0.01 μg/ml, Table 6A, read-out: Suppression) was 23.4%. The inhibition at 0.1 µg/mL (CTLL-2 cells; Mus musculus, CTLL-2, 68 h, 0.1 μg/ml, Table 6A, read-out: Suppression) was 19.7% and the inhibition at 1 µg/mL (CTLL-2 cells; Mus musculus, CTLL-2, 68 h, 1 μg/ml, Table 6A, read-out: Suppression) was 74.2%.

In the case of `CCCCCCCCCCCCC/C=C/C[C@@H](O)[C@H](O)[C@@](N)(CO)C(=O)O` [Example 5], the 3H-thymidine uptake ([1]; 0.0001 μg/ml, Table 1A) is reported as 15747 cpm, the 3H-thymidine uptake ([1]; 0.0001 μg/ml, Table 1B) is reported as 4485 ± 812 cpm and the Suppression ([1]; 0.0001 μg/ml, Table 1B) is reported as 18.1%. The 3H-thymidine uptake ([1]; 0.001 μg/ml, Table 1A) was 2384 cpm, the 3H-thymidine uptake ([1]; 0.001 μg/ml, Table 1B) was 6101 ± 356 cpm and the Suppression ([1]; 0.001 μg/ml, Table 1B) was 0%. For the same compound, the 3H-thymidine uptake ([1]; 0.01 μg/ml, Table 1A) was 1421 cpm, the 3H-thymidine uptake ([1]; 0.01 μg/ml, Table 1B) was 1013 ± 314 cpm and the 3H-thymidine uptake ([1]; 0.1 μg/ml, Table 1A) was 1091 cpm. The 3H-thymidine uptake ([1]; 0.1 μg/ml, Table 1B) was 359 ± 54 cpm, the 3H-thymidine uptake ([1]; 1 μg/ml, Table 1A) was 1163 cpm and the 3H-thymidine uptake ([1]; 1 μg/ml, Table 1B) was 52 ± 24 cpm. For the same compound, the inhibition at 0.0001 µg/mL ([1]; 0.0001 μg/ml, Table 1A) was 16%, the inhibition at 0.001 µg/mL ([1]; 0.001 μg/ml, Table 1A) was 95.5% and the inhibition at 0.01 µg/mL ([1]; 0.01 μg/ml, Table 1A) was 100%. The inhibition at 0.01 µg/mL ([1]; 0.01 μg/ml, Table 1B) was 92.2%, the inhibition at 0.1 µg/mL ([1]; 0.1 μg/ml, Table 1A) was 100% and the inhibition at 0.1 µg/mL ([1]; 0.1 μg/ml, Table 1B) was 100%. For the same compound, the inhibition at 1 µg/mL ([1]; 1 μg/ml, Table 1A) was 100%, the inhibition at 1 µg/mL ([1]; 1 μg/ml, Table 1B) was 100% and the IC50 [1] was 0.00025 µg/mL (≈ 0.000645 µM). For the same compound, the IL-2 activity ([2]; 0.001 μg/ml) was 8.6 U/ml, the IL-2 activity ([2]; 0.01 μg/ml) was 4.6 U/ml and the IL-2 activity ([2]; 0.1 μg/ml) was 4.3 U/ml. It also gave an IL-2 activity ([2]; 1 μg/ml) of 2.7 U/ml, an inhibition at 0.001 µg/mL ([2]; 0.001 μg/ml) of 36.3% and an inhibition at 0.01 µg/mL ([2]; 0.01 μg/ml) of 65.9%. For the same compound, the inhibition at 0.1 µg/mL ([2]; 0.1 μg/ml) was 68.1%, the inhibition at 1 µg/mL ([2]; 1 μg/ml) was 80% and the IL-3 activity ([3]; 0.001 μg/ml) was 22.0 U/ml. It also gave an IL-3 activity ([3]; 0.01 μg/ml) of 13.2 U/ml, an IL-3 activity ([3]; 0.1 μg/ml) of 12.0 U/ml and an IL-3 activity ([3]; 1 μg/ml) of 9.5 U/ml. It also gave an inhibition at 0.001 µg/mL ([3]; 0.001 μg/ml) of 10.2%, an inhibition at 0.01 µg/mL ([3]; 0.01 μg/ml) of 10.2% and an inhibition at 0.1 µg/mL ([3]; 0.1 μg/ml) of 51%. For the same compound, the inhibition at 1 µg/mL ([3]; 1 μg/ml) was 62.2%, the “optical density (OD570)” value (CTLL-2 cells; 0.01 μg/ml, Table 6B) was 0.915 and the “optical density (OD570)” value (CTLL-2 cells; 0.1 μg/ml, Table 6B) was 0.322. For the same compound, the “optical density (OD570)” value (CTLL-2 cells; 1 μg/ml, Table 6B) was 0.239, the inhibition at 0.01 µg/mL (CTLL-2 cells; Mus musculus, CTLL-2, 68 h, 0.01 μg/ml, Table 6B, read-out: Suppression) was 4.9% and the inhibition at 0.1 µg/mL (CTLL-2 cells; Mus musculus, CTLL-2, 68 h, 0.1 μg/ml, Table 6B, read-out: Suppression) was 68.3%. For the same compound, the inhibition at 1 µg/mL (CTLL-2 cells; Mus musculus, CTLL-2, 68 h, 1 μg/ml, Table 6B, read-out: Suppression) was 77.2%.
